Reference: ChEMBL document CHEMBL1201862, “PubChem BioAssay data set” (2004)
The source made the active and inactive calls.

Tests used:
[1] = C. albicans growth with fluconazole, confirmation, fluorescence, retest (AID 2467); format: functional, cell-based
HEK293 [2] = test: cells; details: Homo sapiens
[3] = NIH-3T3 fibroblast cytotoxicity, dose response, cytotoxicity control, cell-based, fluorescence, Alamar Blue, secondary assay (AID 2327); format: functional;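 further: NIH-3T3 mouse fibroblasts cultured with fluconazole at 8 µg/mL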
HEK293 [4] = test: cells; details: Homo sapiens; remark: listed apart in the source
[5] = target: T1, Short transient receptor potential channel 4 (Mus musculus, UniProt Q9QUQ5); test: mouse TRPC4 channel activators, dose response, cell-based, HEK293 TRPC4/mu-opioid, Fluo-4 calcium (AID 434937); format: functional
T1 sequence (Q9QUQ5 whole entry): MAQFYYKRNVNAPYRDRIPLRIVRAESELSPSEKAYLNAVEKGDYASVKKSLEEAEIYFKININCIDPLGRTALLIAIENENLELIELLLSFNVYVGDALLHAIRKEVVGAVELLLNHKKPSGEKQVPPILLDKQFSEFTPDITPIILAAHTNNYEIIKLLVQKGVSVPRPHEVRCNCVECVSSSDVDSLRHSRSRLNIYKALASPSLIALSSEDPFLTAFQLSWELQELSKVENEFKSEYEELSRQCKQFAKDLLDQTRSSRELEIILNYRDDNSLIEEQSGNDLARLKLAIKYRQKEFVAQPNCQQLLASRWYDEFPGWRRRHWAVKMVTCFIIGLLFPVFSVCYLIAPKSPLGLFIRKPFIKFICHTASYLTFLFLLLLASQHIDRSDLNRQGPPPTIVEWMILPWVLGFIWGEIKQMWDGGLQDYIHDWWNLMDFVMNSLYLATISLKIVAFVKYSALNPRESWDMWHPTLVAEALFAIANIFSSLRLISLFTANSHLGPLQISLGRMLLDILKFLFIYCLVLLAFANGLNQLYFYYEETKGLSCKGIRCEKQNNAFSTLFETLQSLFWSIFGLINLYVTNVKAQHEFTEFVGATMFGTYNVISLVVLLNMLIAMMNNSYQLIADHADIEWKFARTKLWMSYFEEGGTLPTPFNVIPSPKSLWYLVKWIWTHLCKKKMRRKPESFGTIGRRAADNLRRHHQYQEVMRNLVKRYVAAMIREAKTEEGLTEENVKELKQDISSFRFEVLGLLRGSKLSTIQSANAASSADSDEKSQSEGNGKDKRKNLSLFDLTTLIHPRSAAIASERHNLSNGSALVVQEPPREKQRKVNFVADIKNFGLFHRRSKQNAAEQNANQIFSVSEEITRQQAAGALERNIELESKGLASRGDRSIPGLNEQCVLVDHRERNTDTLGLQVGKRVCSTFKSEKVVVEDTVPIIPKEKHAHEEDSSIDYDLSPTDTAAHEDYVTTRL

Aminopeptidase N = target: T2, Aminopeptidase N (Plasmodium falciparum FcB1/Columbia, UniProt O96935); test: P. falciparum M1AAP inhibitors, biochemical, fluorogenic H-Leu-NHMec substrate, 1536-well (AID 1445); parameters: species or system Plasmodium falciparum 3D7, 3D7
T2 sequence (O96935 whole entry): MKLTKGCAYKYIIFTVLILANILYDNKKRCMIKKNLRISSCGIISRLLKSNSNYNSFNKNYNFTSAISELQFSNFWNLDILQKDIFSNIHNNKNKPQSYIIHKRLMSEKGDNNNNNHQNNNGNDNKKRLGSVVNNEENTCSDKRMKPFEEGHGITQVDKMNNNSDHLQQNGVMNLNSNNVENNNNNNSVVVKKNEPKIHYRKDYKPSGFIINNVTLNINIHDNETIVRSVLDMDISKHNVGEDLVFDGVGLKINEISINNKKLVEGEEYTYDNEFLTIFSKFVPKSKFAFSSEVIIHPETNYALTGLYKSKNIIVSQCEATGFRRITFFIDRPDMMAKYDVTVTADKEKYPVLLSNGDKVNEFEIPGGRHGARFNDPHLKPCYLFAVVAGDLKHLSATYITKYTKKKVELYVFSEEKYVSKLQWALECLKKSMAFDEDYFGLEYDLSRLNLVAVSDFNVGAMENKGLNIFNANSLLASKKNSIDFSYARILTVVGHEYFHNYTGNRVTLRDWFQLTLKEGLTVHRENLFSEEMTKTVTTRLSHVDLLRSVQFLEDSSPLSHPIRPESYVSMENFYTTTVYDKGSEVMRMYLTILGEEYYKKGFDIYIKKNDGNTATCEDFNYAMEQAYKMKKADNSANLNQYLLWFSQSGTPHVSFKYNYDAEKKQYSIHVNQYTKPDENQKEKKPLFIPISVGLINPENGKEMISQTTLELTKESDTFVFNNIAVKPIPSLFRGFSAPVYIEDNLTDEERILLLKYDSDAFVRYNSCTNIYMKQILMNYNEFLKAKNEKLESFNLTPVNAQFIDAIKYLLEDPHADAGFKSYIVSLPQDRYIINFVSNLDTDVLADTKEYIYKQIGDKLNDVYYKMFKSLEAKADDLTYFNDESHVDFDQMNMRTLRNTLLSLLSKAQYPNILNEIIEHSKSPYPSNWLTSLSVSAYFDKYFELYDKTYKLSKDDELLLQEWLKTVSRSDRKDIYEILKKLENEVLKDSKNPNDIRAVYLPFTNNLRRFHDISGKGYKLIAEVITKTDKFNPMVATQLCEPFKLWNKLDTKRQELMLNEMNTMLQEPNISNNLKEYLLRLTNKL

Nonstructural protein 1 = Nonstructural protein 1 (Influenza A virus, UniProt Q194T2); format: functional, Influenza A virus (A/California/07/2009(H1N1))
Sequence of Nonstructural protein 1 (Q194T2 whole entry): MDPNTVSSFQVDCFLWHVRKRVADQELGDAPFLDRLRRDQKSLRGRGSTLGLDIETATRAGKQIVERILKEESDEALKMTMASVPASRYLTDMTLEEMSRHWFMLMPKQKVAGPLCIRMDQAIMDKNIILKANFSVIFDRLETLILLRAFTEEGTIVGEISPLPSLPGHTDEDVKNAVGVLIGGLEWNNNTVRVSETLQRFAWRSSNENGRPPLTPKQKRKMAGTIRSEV

[6] = target: T3, Polyadenylate-binding protein 1 (Homo sapiens, UniProt P11940); test: PABP1 MLLE–PAM2 binding inhibitor potency, dose response, biochemical, fluorescence polarization, FITC-PAM2 peptide (AID 602259); format: functional; details: read-out: IC50_Mean
T3 sequence (P11940 whole entry): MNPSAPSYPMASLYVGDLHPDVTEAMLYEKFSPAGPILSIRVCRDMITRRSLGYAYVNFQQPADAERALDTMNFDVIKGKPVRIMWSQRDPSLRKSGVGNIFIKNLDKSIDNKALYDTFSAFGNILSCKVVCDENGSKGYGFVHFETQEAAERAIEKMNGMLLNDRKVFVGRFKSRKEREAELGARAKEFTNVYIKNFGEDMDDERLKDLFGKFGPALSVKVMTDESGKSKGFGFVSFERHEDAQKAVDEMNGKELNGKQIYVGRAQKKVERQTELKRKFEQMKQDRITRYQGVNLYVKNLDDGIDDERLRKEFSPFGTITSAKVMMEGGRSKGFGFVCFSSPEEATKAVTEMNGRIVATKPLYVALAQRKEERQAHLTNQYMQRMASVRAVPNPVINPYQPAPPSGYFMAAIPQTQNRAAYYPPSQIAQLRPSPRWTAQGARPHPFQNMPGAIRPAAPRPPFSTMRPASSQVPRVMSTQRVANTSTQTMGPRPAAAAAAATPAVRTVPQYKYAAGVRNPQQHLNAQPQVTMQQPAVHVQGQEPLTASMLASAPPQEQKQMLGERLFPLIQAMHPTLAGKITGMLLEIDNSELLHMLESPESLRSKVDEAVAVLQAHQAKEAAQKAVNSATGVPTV

[7] = target: T3, Polyadenylate-binding protein 1; test: PABP1 MLLE–PAM2 interaction inhibitors, dose response, miRNA deadenylation inhibitor project, biochemical, fluorescence polarization, Cy5-PAM2 peptide, secondary (AID 602260); format: functional; details: read-out: IC50_Mean
INS1 = test: beta cell apoptosis inhibitors, cytokine rescue, dose response, luminescence, retest (AID 449756); format: functional, cell-based; details: Rattus norvegicus;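 further: cell death triggered by IL-1 beta plus TNF-alpha plus IFN-gamma mixture; protective hits raise ATP signal compared with cytokine alone wells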
[8] = target: T4, Sentrin-specific protease 7 (Homo sapiens, UniProt Q9BQF6); format: functional;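 further: Luminescence-based dose-response confirmation of ultra-high-throughput screening hits, measuring inhibition of SENP7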
T4 sequence (Q9BQF6 whole entry): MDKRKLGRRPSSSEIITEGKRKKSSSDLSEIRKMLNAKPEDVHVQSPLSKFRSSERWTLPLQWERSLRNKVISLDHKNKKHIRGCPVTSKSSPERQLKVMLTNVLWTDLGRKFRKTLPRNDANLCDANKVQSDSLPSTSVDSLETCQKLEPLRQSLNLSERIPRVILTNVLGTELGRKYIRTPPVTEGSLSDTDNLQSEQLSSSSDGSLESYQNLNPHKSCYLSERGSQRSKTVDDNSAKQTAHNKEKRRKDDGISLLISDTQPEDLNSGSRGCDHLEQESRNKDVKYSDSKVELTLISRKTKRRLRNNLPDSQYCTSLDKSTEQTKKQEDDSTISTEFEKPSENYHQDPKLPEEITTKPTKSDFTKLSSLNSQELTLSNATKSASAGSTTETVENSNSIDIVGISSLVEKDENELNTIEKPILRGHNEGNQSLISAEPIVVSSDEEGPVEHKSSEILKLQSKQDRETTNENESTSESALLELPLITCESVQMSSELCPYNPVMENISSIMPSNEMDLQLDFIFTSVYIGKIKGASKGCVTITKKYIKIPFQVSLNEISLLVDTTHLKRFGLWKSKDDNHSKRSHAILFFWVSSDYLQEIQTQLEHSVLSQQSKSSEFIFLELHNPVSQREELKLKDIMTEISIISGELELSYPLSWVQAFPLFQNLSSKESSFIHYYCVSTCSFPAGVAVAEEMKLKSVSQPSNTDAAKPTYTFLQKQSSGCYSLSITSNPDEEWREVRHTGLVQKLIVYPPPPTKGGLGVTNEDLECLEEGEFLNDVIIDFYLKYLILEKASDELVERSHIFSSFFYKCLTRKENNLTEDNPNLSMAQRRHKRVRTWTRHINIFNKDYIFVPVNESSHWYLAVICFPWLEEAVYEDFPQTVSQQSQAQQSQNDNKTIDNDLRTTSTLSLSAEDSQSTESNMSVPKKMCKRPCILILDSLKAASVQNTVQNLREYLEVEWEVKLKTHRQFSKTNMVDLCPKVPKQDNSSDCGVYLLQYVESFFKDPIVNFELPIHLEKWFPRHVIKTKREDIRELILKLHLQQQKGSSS

[9] = target: T5, Sentrin-specific protease 6 (Homo sapiens, UniProt Q9GZR1); format: functional;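 further: Luminescence-based dose-response confirmatory assay of SENP6 inhibition, following up an ultra-high-throughput screen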
T5 sequence (Q9GZR1 whole entry): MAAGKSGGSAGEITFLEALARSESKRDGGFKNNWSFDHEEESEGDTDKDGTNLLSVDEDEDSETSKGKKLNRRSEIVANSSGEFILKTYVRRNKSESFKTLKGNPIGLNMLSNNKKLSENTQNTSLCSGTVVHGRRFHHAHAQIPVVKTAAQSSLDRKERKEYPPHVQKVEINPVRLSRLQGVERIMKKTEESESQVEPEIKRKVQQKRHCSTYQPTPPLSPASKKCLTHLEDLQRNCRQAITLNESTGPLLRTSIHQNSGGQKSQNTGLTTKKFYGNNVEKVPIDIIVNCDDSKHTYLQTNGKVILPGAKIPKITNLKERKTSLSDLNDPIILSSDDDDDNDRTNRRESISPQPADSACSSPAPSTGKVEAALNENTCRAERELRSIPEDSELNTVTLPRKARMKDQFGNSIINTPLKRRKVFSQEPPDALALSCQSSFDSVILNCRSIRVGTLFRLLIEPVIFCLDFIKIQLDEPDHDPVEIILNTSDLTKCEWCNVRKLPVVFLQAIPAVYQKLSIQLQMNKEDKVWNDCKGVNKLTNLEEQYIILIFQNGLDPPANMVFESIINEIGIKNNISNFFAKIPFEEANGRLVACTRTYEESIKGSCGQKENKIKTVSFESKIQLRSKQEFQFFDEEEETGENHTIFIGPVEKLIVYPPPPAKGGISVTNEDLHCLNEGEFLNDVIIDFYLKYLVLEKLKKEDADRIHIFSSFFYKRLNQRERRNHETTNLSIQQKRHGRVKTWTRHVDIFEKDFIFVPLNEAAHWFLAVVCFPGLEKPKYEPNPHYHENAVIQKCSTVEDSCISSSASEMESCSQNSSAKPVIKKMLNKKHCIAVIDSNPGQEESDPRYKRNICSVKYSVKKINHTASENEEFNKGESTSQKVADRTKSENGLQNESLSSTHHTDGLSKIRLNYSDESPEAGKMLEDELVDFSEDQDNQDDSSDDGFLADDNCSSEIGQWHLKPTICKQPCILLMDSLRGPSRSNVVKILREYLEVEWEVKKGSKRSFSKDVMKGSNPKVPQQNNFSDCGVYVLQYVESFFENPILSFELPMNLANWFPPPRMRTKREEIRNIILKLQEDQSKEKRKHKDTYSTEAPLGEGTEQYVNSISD

[10] = target: T6, Sentrin-specific protease 8 (Homo sapiens, UniProt Q96LD8); format: functional;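 further: luminescence read-out of SENP8 inhibition, dose-response confirmation following an ultra-high-throughput screen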
T6 sequence (Q96LD8 whole entry): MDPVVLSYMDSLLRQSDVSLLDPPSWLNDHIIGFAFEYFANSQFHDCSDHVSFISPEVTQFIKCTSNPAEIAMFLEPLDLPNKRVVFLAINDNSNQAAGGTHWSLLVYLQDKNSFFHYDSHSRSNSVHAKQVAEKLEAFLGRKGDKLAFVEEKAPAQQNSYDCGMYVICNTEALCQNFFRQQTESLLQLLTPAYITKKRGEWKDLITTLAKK

cells [11] = format: functional, cell-based
cells [12] = format: functional, cell-based; remark: listed apart in the source

Fc1cccc(-n2cc(-c3ccccc3)c3c(S)ncnc32)c1
EC50 [1]: 8.62 µM (active) | EC50 (HEK293 [2]): > 59.6 µM (inactive) | EC50 [3]: > 150 µM (inactive) | EC50 (HEK293 [4]): > 59.6 µM (inactive)

OCCNCCSc1ccc(Cl)cc1
EC50 [5]: 1.5 µM (active)

COc1ccc(CCN(C)c2ccc(S(=O)(=O)N3CCCC3)cc2[N+](=O)[O-])cc1OC
EC50 (HEK293 [2]): > 59.7 µM (inactive) | EC50 (HEK293 [4]): > 59.7 µM (inactive)

O=C(O)C(Cc1ccccc1)/N=C/c1c(O)oc2ccccc2c1=O (stereo not given)
IC50 (Aminopeptidase N): 20.6 µM (active)

Cc1ccc(S(=O)(=O)N(C)C)cc1NC(=O)Nc1c(-c2ccccc2)noc1C
IC50 (Aminopeptidase N): 12.9 µM (active)

COc1cccc(CN2CCNC(=O)C2CC(=O)N(C)CCc2ccccn2)c1 (stereo not given)
EC50 [5]: 4.73 µM (active)

COc1ccc(O)c(/C=N/NC(=S)Nc2cccnc2)c1
IC50 (Nonstructural protein 1): 3.04 µM (active) | IC50 [6]: > 66 µM (inactive) | IC50 [7]: > 66 µM (inactive) | AC50 (INS1): 1.56 µM (active)

COc1ccc(C(N)=NOC(=O)CSc2ccccc2)cc1
IC50 [8]: 5.98 µM (active) | IC50 [9]: 28 µM (active) | IC50 [10]: 12.8 µM (active)

CC1(C)OC(c2ccccc2)=C/C(=C/C=C2C(=O)c3ccccc3C2=O)O1
IC50 (Nonstructural protein 1): 6.6 µM (active)

CCCCN(CC)C(=O)CSc1nc2c(sc(=S)n2-c2ccc(OCC)cc2)c(=O)[nH]1
IC50 (Aminopeptidase N): 38.8 µM (active)

COC(=O)C1=C(C)N(C)C(=O)NC1c1cc(Cl)c(O)c(OC)c1 (stereo not given)
EC50 (cells [11]): > 350 µM (not active) | EC50 (cells [12]): > 350 µM (not active) | EC50 (HEK293 [2]): > 59.6 µM (inactive) | EC50 (HEK293 [4]): > 59.6 µM (inactive)

CN(C)C(CNC(=O)CSc1nc2sc3c(c2c(=O)n1C)CCCC3)c1ccccc1 (stereo not given)
EC50 (HEK293 [2]): > 59.6 µM (inactive) | EC50 (HEK293 [4]): > 59.6 µM (inactive)
